Key:
[1] = target: rat TRPV1, full-length channel expressed in HEK293 cells (rat) (UniProt O35433)
Sequence of rat TRPV1, full-length channel expressed in HEK293 cells (rat) (O35433 whole entry): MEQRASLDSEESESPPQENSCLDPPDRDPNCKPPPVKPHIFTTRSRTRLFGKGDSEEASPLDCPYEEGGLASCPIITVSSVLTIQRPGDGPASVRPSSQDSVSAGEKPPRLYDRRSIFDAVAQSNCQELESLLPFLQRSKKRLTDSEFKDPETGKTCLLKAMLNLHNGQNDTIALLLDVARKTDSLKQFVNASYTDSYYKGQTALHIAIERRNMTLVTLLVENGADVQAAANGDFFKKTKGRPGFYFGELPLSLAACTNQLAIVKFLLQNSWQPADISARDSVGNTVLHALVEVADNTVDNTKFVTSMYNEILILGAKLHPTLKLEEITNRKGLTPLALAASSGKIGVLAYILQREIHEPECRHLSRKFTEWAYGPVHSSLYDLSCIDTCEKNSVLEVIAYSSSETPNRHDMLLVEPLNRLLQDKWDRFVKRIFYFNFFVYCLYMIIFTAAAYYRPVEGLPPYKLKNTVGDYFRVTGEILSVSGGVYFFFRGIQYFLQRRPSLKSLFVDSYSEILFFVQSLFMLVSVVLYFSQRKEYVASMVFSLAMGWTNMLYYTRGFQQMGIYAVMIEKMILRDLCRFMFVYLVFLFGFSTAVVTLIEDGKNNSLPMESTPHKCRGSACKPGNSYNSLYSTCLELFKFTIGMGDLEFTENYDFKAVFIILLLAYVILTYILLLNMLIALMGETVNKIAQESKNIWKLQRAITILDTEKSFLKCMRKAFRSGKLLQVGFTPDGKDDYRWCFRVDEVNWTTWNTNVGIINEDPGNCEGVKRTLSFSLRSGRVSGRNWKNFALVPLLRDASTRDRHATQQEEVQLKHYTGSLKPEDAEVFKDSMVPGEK

Sequence of double-knot toxin (DkTx), full-length toxin produced recombinantly (natural protein) (P0CH43 1-75): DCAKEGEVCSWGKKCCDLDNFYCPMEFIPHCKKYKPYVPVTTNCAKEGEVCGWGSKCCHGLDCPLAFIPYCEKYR

Substance	Trp emission maximum in aqueous solution [nm]	fractional dissociation 1 min after toxin removal (current 1 min after removal divided by steady-state current with toxin), whole-cell patch clamp at +120 mV, TRPV1 in HEK cells [1]
double-knot toxin	353	
double-knot toxin (DkTx), full-length toxin produced recombinantly (natural protein)		0.8

Reference: paper PMC4764579, “Structural insights into the mechanism of activation of the TRPV1 channel by a membrane-bound tarantula toxin” (eLife, 2016)
